According to PMC12621043, “Un-LOK-ing a New Approach for Conformational Selective Targeting of STK10 (LOK)” (ACS Medicinal Chemistry Letters, 2025):

Tests used:
Test in all cases: DSF Tm panel
Type in all cases: binding
Conditions in all cases: 10 μM compound
BMPR2A = molecular target: T1, BMPR2A (Homo sapiens, UniProt Q13873)
T1 construct: purchased in-house DSF kinase panel (SGC-style construct names; the trailing letter is the construct ID)
T1 sequence (Q13873 27-1038): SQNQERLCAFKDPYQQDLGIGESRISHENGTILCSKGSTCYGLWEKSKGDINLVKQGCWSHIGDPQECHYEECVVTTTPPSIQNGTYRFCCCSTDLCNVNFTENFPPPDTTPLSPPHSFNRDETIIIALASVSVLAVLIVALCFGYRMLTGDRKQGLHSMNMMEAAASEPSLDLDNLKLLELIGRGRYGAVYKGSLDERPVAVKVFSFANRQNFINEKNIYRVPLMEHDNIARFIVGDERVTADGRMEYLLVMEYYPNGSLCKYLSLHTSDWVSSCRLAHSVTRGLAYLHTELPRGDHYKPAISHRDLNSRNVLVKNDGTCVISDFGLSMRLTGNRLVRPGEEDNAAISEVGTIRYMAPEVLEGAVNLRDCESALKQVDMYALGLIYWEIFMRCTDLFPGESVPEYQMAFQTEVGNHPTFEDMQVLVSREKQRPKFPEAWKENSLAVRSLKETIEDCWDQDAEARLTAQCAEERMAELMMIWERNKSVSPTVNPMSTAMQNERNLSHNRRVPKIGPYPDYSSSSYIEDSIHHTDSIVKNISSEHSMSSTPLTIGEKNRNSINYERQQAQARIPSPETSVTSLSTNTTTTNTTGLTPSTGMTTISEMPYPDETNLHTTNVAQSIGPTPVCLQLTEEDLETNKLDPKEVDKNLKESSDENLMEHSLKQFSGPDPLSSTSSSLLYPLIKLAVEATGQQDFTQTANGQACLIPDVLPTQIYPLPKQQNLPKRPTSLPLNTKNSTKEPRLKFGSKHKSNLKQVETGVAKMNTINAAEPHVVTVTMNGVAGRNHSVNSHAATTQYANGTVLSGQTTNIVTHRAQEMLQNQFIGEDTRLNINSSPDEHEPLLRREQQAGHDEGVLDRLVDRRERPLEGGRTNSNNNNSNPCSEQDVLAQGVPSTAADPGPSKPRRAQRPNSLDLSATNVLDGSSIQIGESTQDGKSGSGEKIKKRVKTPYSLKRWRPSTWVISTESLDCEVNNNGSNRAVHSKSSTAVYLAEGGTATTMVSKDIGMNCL

BMX (BMXA) = molecular target: T2, BMX (BMXA) (Homo sapiens, UniProt P51813)
T2 construct: purchased in-house DSF kinase panel (SGC-style construct names; the trailing letter is the construct ID)
T2 sequence (P51813 411-675): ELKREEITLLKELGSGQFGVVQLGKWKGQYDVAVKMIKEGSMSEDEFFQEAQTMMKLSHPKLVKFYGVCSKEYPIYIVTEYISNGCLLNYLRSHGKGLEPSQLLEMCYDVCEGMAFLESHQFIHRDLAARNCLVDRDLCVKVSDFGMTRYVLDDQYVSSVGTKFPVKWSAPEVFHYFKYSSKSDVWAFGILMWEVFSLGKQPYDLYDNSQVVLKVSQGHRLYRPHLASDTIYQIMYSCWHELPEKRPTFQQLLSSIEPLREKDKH

BRD4 (BRD4A) = molecular target: T3, BRD4 (BRD4A) (Homo sapiens, UniProt O60885)
T3 construct: purchased in-house DSF kinase panel (SGC-style construct names; the trailing letter is the construct ID)

CLK3A = molecular target: T4, CLK3A (Homo sapiens, UniProt P49761)
T4 construct: purchased in-house DSF kinase panel (SGC-style construct names; the trailing letter is the construct ID)
T4 sequence (P49761 127-484): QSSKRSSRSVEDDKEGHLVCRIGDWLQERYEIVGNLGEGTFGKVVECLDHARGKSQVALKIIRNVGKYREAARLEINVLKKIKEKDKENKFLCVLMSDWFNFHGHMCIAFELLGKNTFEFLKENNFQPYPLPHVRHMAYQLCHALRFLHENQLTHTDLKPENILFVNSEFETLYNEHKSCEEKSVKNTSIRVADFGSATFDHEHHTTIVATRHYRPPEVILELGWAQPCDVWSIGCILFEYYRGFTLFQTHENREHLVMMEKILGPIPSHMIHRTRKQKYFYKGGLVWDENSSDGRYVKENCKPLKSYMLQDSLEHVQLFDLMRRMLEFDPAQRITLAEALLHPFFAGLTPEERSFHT

PAK1A = molecular target: T5, PAK1A (Homo sapiens, UniProt Q13153)
T5 construct: purchased in-house DSF kinase panel (SGC-style construct names; the trailing letter is the construct ID)
T5 sequence (Q13153 249-545): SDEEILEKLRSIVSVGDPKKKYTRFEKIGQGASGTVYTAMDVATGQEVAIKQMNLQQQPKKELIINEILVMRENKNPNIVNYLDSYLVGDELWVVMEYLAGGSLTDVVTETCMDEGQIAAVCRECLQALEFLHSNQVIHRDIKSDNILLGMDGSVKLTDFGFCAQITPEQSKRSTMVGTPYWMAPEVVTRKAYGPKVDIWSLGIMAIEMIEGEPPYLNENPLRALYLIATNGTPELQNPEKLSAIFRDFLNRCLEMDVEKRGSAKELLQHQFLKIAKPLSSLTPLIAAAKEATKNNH

PIM3A = molecular target: T6, PIM3A (Homo sapiens, UniProt Q86V86)
T6 construct: purchased in-house DSF kinase panel (SGC-style construct names; the trailing letter is the construct ID)

PLK4A = molecular target: T7, PLK4A (Homo sapiens, UniProt O00444)
T7 construct: purchased in-house DSF kinase panel (SGC-style construct names; the trailing letter is the construct ID)
T7 sequence (O00444 2-275): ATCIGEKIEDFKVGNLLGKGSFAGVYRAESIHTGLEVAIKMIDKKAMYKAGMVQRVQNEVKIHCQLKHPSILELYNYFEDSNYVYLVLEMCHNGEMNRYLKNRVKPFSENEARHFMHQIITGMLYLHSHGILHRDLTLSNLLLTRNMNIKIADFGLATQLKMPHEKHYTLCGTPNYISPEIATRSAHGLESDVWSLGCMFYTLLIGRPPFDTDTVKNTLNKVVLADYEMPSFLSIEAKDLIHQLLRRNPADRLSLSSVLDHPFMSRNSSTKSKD

SRCA = molecular target: T8, SRCA (Homo sapiens, UniProt P12931)
T8 construct: purchased in-house DSF kinase panel (SGC-style construct names; the trailing letter is the construct ID)
T8 sequence (P12931 254-536): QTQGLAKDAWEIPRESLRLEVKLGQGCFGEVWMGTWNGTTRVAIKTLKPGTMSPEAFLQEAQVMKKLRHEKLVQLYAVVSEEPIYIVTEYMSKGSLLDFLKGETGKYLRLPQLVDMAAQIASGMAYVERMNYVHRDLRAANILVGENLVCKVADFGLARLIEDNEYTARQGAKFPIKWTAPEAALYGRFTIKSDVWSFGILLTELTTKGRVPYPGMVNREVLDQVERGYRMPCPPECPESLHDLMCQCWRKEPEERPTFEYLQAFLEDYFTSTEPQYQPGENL

ULK1A = molecular target: T9, ULK1A (Homo sapiens, UniProt O75385)
T9 construct: purchased in-house DSF kinase panel (SGC-style construct names; the trailing letter is the construct ID)
T9 sequence (O75385 1-283): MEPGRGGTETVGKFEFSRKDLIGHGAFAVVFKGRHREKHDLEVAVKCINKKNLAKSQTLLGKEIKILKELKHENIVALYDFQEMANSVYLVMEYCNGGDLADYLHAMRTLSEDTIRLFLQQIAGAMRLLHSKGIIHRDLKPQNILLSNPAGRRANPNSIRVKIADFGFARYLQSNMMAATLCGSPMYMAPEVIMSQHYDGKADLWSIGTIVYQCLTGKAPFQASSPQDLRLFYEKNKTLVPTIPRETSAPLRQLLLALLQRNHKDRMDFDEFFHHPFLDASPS

MST3A = molecular target: T10, MST3A (Homo sapiens, UniProt Q9Y6E0)
T10 construct: purchased in-house DSF kinase panel (SGC-style construct names; the trailing letter is the construct ID)
T10 sequence (Q9Y6E0 whole entry): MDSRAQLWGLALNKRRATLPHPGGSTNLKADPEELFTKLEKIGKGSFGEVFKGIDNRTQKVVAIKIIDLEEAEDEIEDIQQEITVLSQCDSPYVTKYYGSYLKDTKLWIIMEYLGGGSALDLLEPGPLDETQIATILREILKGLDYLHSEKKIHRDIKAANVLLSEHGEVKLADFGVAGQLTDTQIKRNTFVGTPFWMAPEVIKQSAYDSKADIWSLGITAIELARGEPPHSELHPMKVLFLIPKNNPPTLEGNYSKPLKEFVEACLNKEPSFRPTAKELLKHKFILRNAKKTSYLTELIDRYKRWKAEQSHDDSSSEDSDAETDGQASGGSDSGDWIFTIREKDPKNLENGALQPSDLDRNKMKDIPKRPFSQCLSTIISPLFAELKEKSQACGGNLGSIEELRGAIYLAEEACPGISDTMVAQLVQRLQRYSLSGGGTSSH

BRAFA = molecular target: T11, BRAFA (Homo sapiens, UniProt P15056)
T11 construct: purchased in-house DSF kinase panel (SGC-style construct names; the trailing letter is the construct ID)
T11 sequence (P15056 448-723): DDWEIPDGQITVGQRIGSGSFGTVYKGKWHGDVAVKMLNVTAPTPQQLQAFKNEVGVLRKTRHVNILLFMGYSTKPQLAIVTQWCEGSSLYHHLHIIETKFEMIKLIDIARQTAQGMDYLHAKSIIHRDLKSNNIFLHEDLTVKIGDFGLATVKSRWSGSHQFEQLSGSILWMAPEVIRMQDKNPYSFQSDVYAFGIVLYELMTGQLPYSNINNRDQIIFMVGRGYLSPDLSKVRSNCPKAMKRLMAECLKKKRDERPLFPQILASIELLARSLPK

EPHA7A = molecular target: T12, EPHA7A (Homo sapiens, UniProt Q15375)
T12 construct: purchased in-house DSF kinase panel (SGC-style construct names; the trailing letter is the construct ID)
T12 sequence (Q15375 590-899): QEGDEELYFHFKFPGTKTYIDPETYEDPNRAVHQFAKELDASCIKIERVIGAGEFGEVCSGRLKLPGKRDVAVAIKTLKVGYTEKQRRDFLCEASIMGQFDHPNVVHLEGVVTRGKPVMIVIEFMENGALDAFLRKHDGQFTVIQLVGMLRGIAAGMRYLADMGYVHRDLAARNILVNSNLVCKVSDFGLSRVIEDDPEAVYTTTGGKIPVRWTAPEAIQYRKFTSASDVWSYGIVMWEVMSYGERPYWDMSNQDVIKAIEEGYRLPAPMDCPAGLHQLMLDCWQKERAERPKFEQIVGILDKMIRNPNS

MAPK14A = molecular target: T13, MAPK14A (Homo sapiens, UniProt Q16539)
T13 construct: purchased in-house DSF kinase panel (SGC-style construct names; the trailing letter is the construct ID)
T13 sequence (Q16539 whole entry): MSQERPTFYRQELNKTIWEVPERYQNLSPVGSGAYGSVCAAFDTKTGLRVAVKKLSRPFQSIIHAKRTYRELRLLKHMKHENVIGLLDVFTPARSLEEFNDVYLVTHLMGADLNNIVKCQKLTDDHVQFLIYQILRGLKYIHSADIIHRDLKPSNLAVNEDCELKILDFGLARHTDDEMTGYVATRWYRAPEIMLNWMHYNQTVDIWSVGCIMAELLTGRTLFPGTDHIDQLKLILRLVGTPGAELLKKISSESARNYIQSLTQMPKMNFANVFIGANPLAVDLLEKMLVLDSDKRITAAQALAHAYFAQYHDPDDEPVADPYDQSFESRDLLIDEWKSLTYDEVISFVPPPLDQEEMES

| ΔTm at 10 µM (BMPR2A) [°C] | ΔTm at 10 µM (BMX (BMXA)) [°C] | ΔTm at 10 µM (BRD4 (BRD4A)) [°C] | ΔTm at 10 µM (CLK3A) [°C] | ΔTm at 10 µM (PAK1A) [°C] | ΔTm at 10 µM (PIM3A) [°C] | ΔTm at 10 µM (PLK4A) [°C] | ΔTm at 10 µM (SRCA) [°C] | ΔTm at 10 µM (ULK1A) [°C] | ΔTm at 10 µM (MST3A) [°C] | ΔTm at 10 µM (BRAFA) [°C] | ΔTm at 10 µM (EPHA7A) [°C] | ΔTm at 10 µM (MAPK14A) [°C] | Structure (SMILES) |
| --- | --- | --- | --- | --- | --- | --- | --- | --- | --- | --- | --- | --- | --- |
| 4.3 | 0.4 | 0.1 | 0.2 | 0.2 | 4.1 | 3.5 | 2.7 | 0.5 | -5.1 | -0.2 | 1.5 | 0.9 | COc1cccc(CNC(=O)Nc2ccc3cc2OCCOCCNc2ccn4ncc-3c4n2)c1 [compound 30] |
| 2.3 | 1.4 | 1 | 0.4 | 0.9 | 2.4 | 2.5 | 2.1 | 0.4 | 0.7 | 0.8 | 0.4 | 0.1 | O=C(NCc1ccc(Cl)cc1)Nc1ccc2cc1OCCOCCNc1ccn3ncc-2c3n1 [compound 19] |
| 1.8 | 1.4 | 2 | 0.6 | 1 | 3.9 | 2.6 | 2.6 | 0.2 | 0.6 | 0.5 | 1.9 | 0.5 | O=C(NCc1ccc(Cl)cc1F)Nc1ccc2cc1OCCOCCNc1ccn3ncc-2c3n1 [compound 21] |
| 4.4 | 1.7 | 0.7 | 0.3 | 0.1 | 2.4 | 4.1 | 2.5 | 0.6 | 1.5 | 0.8 | -0.1 | -0.6 | O=C(NCc1ccccc1)Nc1ccc2cc1OCCOCCNc1ccn3ncc-2c3n1 [compound 16] |
